Experimental findings from patent US8629148B2, “Substituted oxindole-derivatives and the use thereof for the treatment of vasopressin-dependent illnesses” (AbbVie Deutschland GmbH & Co. KG, priority 2007, dated 2014) are described below.

Test [1] deals with T1, recombinant human oxytocin receptors (Homo sapiens, UniProt P30559).
T1 construct: expressed in transfected cells; host or cells: HEK-293, transient expression; lysed and homogenized cells
T1 sequence (P30559 1-389): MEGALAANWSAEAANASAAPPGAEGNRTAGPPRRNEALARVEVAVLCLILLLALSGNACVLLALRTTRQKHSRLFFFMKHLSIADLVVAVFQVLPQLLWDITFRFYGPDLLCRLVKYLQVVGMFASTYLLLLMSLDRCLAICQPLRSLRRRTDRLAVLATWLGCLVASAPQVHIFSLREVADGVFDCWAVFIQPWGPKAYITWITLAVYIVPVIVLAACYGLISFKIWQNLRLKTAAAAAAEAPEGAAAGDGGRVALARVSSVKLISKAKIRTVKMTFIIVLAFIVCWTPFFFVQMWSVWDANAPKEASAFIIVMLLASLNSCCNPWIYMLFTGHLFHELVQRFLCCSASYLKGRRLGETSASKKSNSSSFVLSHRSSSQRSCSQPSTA
Nature of the test: Oxytocin receptor binding assay (3H-oxytocin, HEK-293 cells). Particulars: selectivity quotient, human OT vs human V1b. On the procedure: The residue was taken up in ice-cold lysis buffer (50 mM Tris-HCl, 10% glycerol, pH 7.4 and Roche complete protease inhibitor) and subjected to an osmotic shock at 4° C. for 20 minutes. The lyzed cells were then centrifuged at 750×g at 4° C. for 20 minutes, the residue was taken up in incubation buffer, and aliquots of 10^7 cells/ml were prepared. The aliquots were frozen at −80° C. until used.
On the day of the experiment, the cells were thawed, diluted with incubation buffer and homogenized using a Multipette Combitip (Eppendorf, Hamburg). […] Triplicate determinations were set up. Bound and free radioligand were separated by filtration under vacuum with Whatman GF/B glass fiber filters with the aid of a Skatron cell harvester 7000. The bound radioactivity was determined by liquid scintillation measurement in a Tricarb Beta counter, model 2000 or 2200CA (Packard).

Test [2] deals with human vasopressin V1a receptor (Homo sapiens, UniProt P37288). Nature of the test: Vasopressin V1a receptor binding assay (125I-AVP displacement, CHO-K1 membranes). The conditions noted are these: selectivity quotient, human V1a vs human V1b.
The target of test [3] is T2, human vasopressin V1b receptor (Homo sapiens, UniProt P47901).
T2 construct: expressed in transfected cells; host or cells: CHO-K1 (cell line hV1b_3H2_CHO), membranes
T2 sequence (P47901 1-424): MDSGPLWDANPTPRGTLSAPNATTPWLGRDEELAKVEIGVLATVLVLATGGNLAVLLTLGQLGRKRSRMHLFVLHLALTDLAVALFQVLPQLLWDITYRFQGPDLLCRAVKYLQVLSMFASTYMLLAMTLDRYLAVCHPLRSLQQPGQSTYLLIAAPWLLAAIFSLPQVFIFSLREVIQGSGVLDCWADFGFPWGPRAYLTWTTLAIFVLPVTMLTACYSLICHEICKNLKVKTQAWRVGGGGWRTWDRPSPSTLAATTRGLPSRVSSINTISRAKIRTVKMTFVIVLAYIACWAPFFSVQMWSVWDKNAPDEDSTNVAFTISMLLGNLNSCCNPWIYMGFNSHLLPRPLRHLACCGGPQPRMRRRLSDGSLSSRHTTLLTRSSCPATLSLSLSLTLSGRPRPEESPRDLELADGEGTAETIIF
In words: Vasopressin V1b receptor binding assay (3H-AVP displacement, CHO-K1 membranes). How it is done:
1. Vasopressin V1b Receptor Binding Assay:
The substance concentration was further diluted 1:5 in the assay mixture (2% DMSO in the mixture).
All determinations were carried out as triplicate determinations.

Sequence of human vasopressin V1a receptor (P37288 whole entry): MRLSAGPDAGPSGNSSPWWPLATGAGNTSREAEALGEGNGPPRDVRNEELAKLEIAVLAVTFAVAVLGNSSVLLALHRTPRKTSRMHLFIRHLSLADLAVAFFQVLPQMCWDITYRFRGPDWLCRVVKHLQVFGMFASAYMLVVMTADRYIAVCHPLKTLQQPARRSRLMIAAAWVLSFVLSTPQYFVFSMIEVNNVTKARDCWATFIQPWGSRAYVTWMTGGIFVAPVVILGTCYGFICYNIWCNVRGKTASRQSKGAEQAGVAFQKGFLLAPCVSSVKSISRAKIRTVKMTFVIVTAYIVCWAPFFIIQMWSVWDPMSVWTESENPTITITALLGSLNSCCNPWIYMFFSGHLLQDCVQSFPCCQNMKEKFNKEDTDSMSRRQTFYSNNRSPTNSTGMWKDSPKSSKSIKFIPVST

Turning to `CCOc1ncccc1C1(Nc2ccc(C(=O)N3CCN(C)CC3)cc2)C(=O)N(S(=O)(=O)c2ccc(OC)cc2)c2ccc(I)cc21` (stereo not drawn) [Example 70, 3-(2-Ethoxypyridin-3-yl)-5-iodo-1-(4-methoxyphenylsulfonyl)-3-[4-(4-methylpiperazin-1-carbonyl)phenylamino]-1,3-dihydroindol-2-one], in test [1], the “Ki(h-OT)/Ki(h-V1b)*” value is “+ (10-<25)”. The “Ki(h-V1a)/Ki(h-V1b)*” value in test [2] is listed as “++ (25-75)”. The inhibitory constant (Ki) in test [3] was in the range of 1 to 10 nM.
As for `CCOc1ncccc1C1(NCc2cccc(N3CCN(C)CC3)c2)C(=O)N(S(=O)(=O)c2ccc(OC)cc2OC)c2ccc(I)cc21` (stereo not drawn) [Example 38, 1-(2,4-Dimethoxyphenylsulfonyl)-3-(2-ethoxypyridin-3-yl)-5-iodo-3-[3-(4-methylpiperazin-1-yl)benzylamino]-1,3-dihydroindol-2-one], in test [1], the “Ki(h-OT)/Ki(h-V1b)*” value was “+ (10-<25)”. In test [2], the “Ki(h-V1a)/Ki(h-V1b)*” value is given as “+ (10-<25)”. The same compound displayed a Ki in test [3] of 1 to 10 nM.
As to `CCOc1ncccc1C1(OC(=O)c2ccc(N3CCN(C)CC3)cc2)C(=O)N(S(=O)(=O)c2ccc(OC)cc2OC)c2ccc(C#N)cc21` (stereo not drawn) [Example 3, 5-Cyano-1-(2,4-dimethoxyphenylsulfonyl)-3-(2-ethoxypyridin-3-yl)-2-oxo-2,3-dihydro-1H-indol-3-yl 4-(4-methylpiperazin-1-yl)benzoate], the “Ki(h-OT)/Ki(h-V1b)*” value in test [1] is on record as “+ (10-<25)”. The “Ki(h-V1a)/Ki(h-V1b)*” value in test [2] is listed as “+++ (>75)”. The compound also had a Ki in test [3] of 1 to 10 nM.
In the case of `CCOc1ncccc1C1(NCc2ccc(N3CCNCC3)cc2)C(=O)N(S(=O)(=O)c2ccc(OC)cc2OC)c2ccc(C#N)cc21` (stereo not drawn) [Example 29, 1-(2,4-Dimethoxyphenylsulfonyl)-3-(2-ethoxypyridin-3-yl)-2-oxo-3-(4-piperazin-1-yl-benzylamino)-2,3-dihydro-1H-indole-5-carbonitrile], in test [1], the “Ki(h-OT)/Ki(h-V1b)*” value is on record as “+ (10-<25)”. Further, the “Ki(h-V1a)/Ki(h-V1b)*” value in test [2] is listed as “++ (25-75)”. Also, in test [3], the Ki lay within 1 to 10 nM.
On to `CCOc1ncccc1C1(NCc2ccc(N3CCN(C)CC3)cc2)C(=O)N(S(=O)(=O)c2ccc(Cl)cc2)c2ccc(C#N)cc21` (stereo not drawn) [Example 26, 1-(4-Chlorophenylsulfonyl)-3-(2-ethoxypyridin-3-yl)-3-[4-(4-methylpiperazin-1-yl)-benzylamino]-2-oxo-2,3-dihydro-1H-indole-5-carbonitrile], for which, in test [1], the “Ki(h-OT)/Ki(h-V1b)*” value is listed as “+++ (>75)”. In addition, the “Ki(h-V1a)/Ki(h-V1b)*” value in test [2] is “++ (25-75)”. The Ki in test [3] was in the range of 10 to 100 nM.
For `CCOc1ncccc1C1(Nc2cccc(N3CCN(C)CC3)c2)C(=O)N(S(=O)(=O)c2ccc(OC)cc2OC)c2ccc(I)cc21` (stereo not drawn) [Example 60, 1-(2,4-Dimethoxyphenylsulfonyl)-3-(2-ethoxypyridin-3-yl)-5-iodo-3-[3-(4-methylpiperazin-1-yl)phenylamino]-1,3-dihydroindol-2-one] the same measures were “++ (25-75)”, “++ (25-75)” and 1 to 10 nM.

What is called Ki is the dissociation constant of the complex between target and ligand, obtained from inhibition or displacement. A lower Ki goes with a stronger hold on the target.
